According to article PMC8064491, “Design and Synthesis of Novel Symmetric Fluorene-2,7-Diamine Derivatives as Potent Hepatitis C Virus Inhibitors” (Pharmaceuticals, 2021):
Read-outs that look alike come from different tables or passages of the source.

Assays:
[1] = Cytotoxicity by intracellular ATP levels; assay type: cell-based; details: human, Huh5-2 cells, read-out: HCV Replicon 1b CC50
Protocol: (§1) The HCV RNA replication inhibitory effect of the novel compounds and their impact on cell viability was tested in the stable cell line Huh5-2 carrying an HCV subgenomic reporter replicon of genotype 1b (strain Con1). The viral replication level was measured in terms of the activity of the co-expressed firefly luciferase (F-Luc). Several concentrations of the tested compounds were prepared in a cell culture medium and were used to treat the cells for 72 h. The solvent DMSO was added as a control with a final concentration of 0.2% so as not to impact viral replication (data not shown). First, different compound concentrations of up to 100 μM were evaluated for their effect on cell viability; results are reported as the median cytotoxic concentration (CC50). Next, all compounds were screened for their anti-HCV activity at a concentration of 1 µM, and compounds showing ≥50% activity were further tested in several concentrations to calculate the median effective concentration (EC50) values (Table 1 and Table 2). The anti-HCV activity of the analogs 1–32 was estimated by quantifying luciferase activity resulting from viral replication. Cytotoxicity was determined by measuring the intracellular levels of ATP. The selectivity index (SI50) was calculated as the ratio of CC50 to EC50 and was calculated as an indication of the compounds’ safety. We used daclatasvir as a positive control.
(§2) Cells were treated with serial dilutions of the test compounds or the solvent DMSO for 72 h. Antiviral activity and cytotoxicity were determined by measuring virus-derived luciferase activity or intracellular ATP levels, respectively. The median effective concentration (EC50) of the compounds, reducing luciferase signal by 50%, and their median cytotoxic concentration (CC50), causing 50% cell death, were determined by nonlinear regression analysis using the Prism 6.0 software (GraphPad Software Inc.). Daclatasvir was kindly provided by Dr. Marc Windisch (Institut Pasteur Korea).
ATP was measured using the ViaLight HS BioAssay kit (Lonza) according to the manufacturer’s protocol in a GloMax 20/20 single-tube luminometer (Promega) for 1 s. Values were normalized to total protein amounts.

[2] = test system: HCV subgenomic reporter replicon of genotype 1b (strain Con1); assay: Anti-HCV 1b activity, luciferase reporter replicon assay in Huh5-2 cells; assay type: cell-based, Hepatitis C virus; details: for EC50: Hepatitis C virus, read-out: HCV Replicon 1b EC50; for HCV Replicon 1b SI50: SI50 = CC50/EC50; for fold more potent than six-membered congeners: 1, 9, 17, 21 vs 29, 30, 31, 32 respectively
Protocol: as §1
The stable replicon cell line Huh5-2 (genotype 1b; Con1) (kindly provided by R. Bartenschlager, Heidelberg University, Germany) has been described previously. The stable cell lines Huh7.5-3a and Huh7.5-4a have been constructed with the subgenomic reporter replicons of HCV 3a (S52) S52-SG(Feo)(AII) and HCV 4a (ED43) ED43-SG(Feo)(VYG) (kindly provided by C.M. Rice, The Rockefeller University, NY). Cells were cultured in high glucose (25 mM) Dulbecco’s modified minimal essential medium (Invitrogen), supplemented with 2 mM L-glutamine, 0.1 mM non-essential amino acids, 100 U/mL penicillin, 100 µg/mL streptomycin, and 10% (v/v) fetal calf serum (referred to as complete DMEM). Complete DMEM was supplemented with G418 at 500 μg/mL for Huh5-2, 750 μg/mL for Huh7.5-3a, and 350 μg/mL for Huh7.5-4a.
as §2
Firefly luciferase activity was measured using Luciferase Assay System (Promega), according to the manufacturer’s instructions. Measurements were performed with a GloMax 20/20 single tube luminometer (Promega) for 10 s. Values were normalized to total protein amounts as quantified by Bradford assay (Pierce).

Compound	CC50 at 72 h [1]	fold more active than S counterparts ([2]; 25 vs 21, 26 vs 22, HCV 1b EC50 ratio)	times less potent than compound 26 ([2]; HCV 1b EC50 ratio)	EC50 ([2]; Huh-5-2, 72 h)	HCV Replicon 1b SI50 [2]	fold more potent than six-membered congeners ([2]; HCV 1b EC50 ratio)	EC50 ([2]; Huh-5-2, Huh5-2 cells, 72 h, luciferase activity)
COC(=O)N[C@@H](C(=O)N1CCC[C@H]1C(=O)Nc1ccc2c(c1)Cc1cc(NC(=O)[C@@H]3CCCN3C(=O)[C@H](NC(=O)OC)c3ccccc3)ccc1-2)c1ccccc1 [Compound 25, Dimethyl((1R,1’R)-((2S,2’S)-(((9H-fluorene-2,7-diyl)bis(azanediyl))bis(carbonyl))bis(pyrrolidine-2,1-diyl))bis(2-oxo-1-phenylethane-2,1-diyl))dicarbamate]	95400 nM	60 fold	four times less potent	0.142 nM	669,874		
CCCCOC(=O)N[C@H](C(=O)N1CCC[C@H]1C(=O)Nc1ccc2c(c1)Cc1cc(NC(=O)[C@@H]3CCCN3C(=O)[C@@H](NC(=O)OCCCC)c3ccccc3)ccc1-2)c1ccccc1 [Compound 23, Dibutyl((1S,1’S)-((2S,2’S)-(((9H-fluorene-2,7-diyl)bis(azanediyl))bis(carbonyl))bis(pyrrolidine-2,1-diyl))bis(2-oxo-1-phenylethane-2,1-diyl))dicarbamate]	> 100000 nM			2.25 nM	>44,444		
COC(=O)N[C@@H](CC(C)C)C(=O)N1CCCC(C(=O)Nc2ccc3c(c2)Cc2cc(NC(=O)C4CCCN(C(=O)[C@H](CC(C)C)NC(=O)OC)C4)ccc2-3)C1 (stereo partly drawn) [Compound 30]	> 100000 nM			289 nM	>346		
COC(=O)N[C@H](C(=O)N1CCCC(C(=O)Nc2ccc3c(c2)Cc2cc(NC(=O)C4CCCN(C(=O)[C@@H](NC(=O)OC)c5ccccc5)C4)ccc2-3)C1)c1ccccc1 (stereo partly drawn) [Compound 32]	> 100000 nM			304 nM	>328		
COC(=O)N[C@H](C(=O)N1CCC[C@H]1C(=O)Nc1ccc2c(c1)Cc1cc(NC(=O)[C@@H]3CCCN3C(=O)[C@@H](NC(=O)OC)c3ccccc3)ccc1-2)c1ccccc1 [Compound 21, Dimethyl((1S,1’S)-((2S,2’S)-(((9H-fluorene-2,7diyl)bis(azanediyl))bis(carbonyl))bis(pyrrolidine-2,1-diyl))bis(2-oxo-1-phenylethane-2,1-diyl))dicarbamate]	87500 nM			8.5 nM	10,298	36 fold	
CCCCOC(=O)N[C@H](C(=O)N1CCC[C@H]1C(=O)Nc1ccc2c(c1)Cc1cc(NC(=O)[C@@H]3CCCN3C(=O)[C@@H](NC(=O)OCCCC)C(C)C)ccc1-2)C(C)C [Compound 3, Dibutyl((2S,2’S)-((2S,2’S)-(((9H-fluorene-2,7-diyl)bis(azanediyl))bis(carbonyl))bis(pyrrolidine-2,1-diyl))bis(3-methyl-1-oxobutane-1,2-diyl))dicarbamate]	> 100000 nM			> 1000 nM			
O=C(N[C@H](C(=O)N1CCC[C@H]1C(=O)Nc1ccc2c(c1)Cc1cc(NC(=O)[C@@H]3CCCN3C(=O)[C@@H](NC(=O)OCc3ccccc3)c3ccccc3)ccc1-2)c1ccccc1)OCc1ccccc1 [Compound 24, Dibenzyl((1S,1’S)-((2S,2’S)-(((9H-fluorene-2,7-diyl)bis(azanediyl))bis(carbonyl))bis(pyrrolidine-2,1-diyl))bis(2-oxo-1-phenylethane-2,1-diyl))dicarbamate]	> 100000 nM				>89,606		1.12 nM
COC(=O)N[C@H](C(=O)N1CCCC(C(=O)Nc2ccc3c(c2)Cc2cc(NC(=O)C4CCCN(C(=O)[C@@H](NC(=O)OC)C(C)C)C4)ccc2-3)C1)C(C)C (stereo partly drawn) [Compound 29]	> 100000 nM			342 nM	>292		
COC(=O)N[C@H](C(=O)N1CCC[C@H]1C(=O)Nc1ccc2c(c1)Cc1cc(NC(=O)[C@@H]3CCCN3C(=O)[C@@H](NC(=O)OC)C(C)C)ccc1-2)C(C)C [Compound 1, Dimethyl((2S,2’S)-((2S,2’S)-(((9H-fluorene-2,7-diyl)bis(azanediyl))bis(carbonyl))bis(pyrrolidine-2,1-diyl))bis(3-methyl-1-oxobutane-1,2-diyl))dicarbamate]						five	
